From paper PMC5296247 (European journal of medicinal chemistry, 2016)

Experiments:
HG23 cells = assay: Nonspecific cytotoxic effects in HG23 cells; assay type: cell-based; settings: cytotoxic dose for 50% cell death (CC50), 1 to 100 μM, 48 h, CytoTox 96 kit and crystal violet staining, average of at least two determinations
NV 3CLpro = NV 3CLpro (Norwalk virus, UniProt Q83883); assay: FRET protease assay, NV 3CLpro; assay type: biochemical; settings: for Fold less active than compounds 13/25: n-pentyl chain versus m-chlorophenyl; for Activity against NV 3CLpro and in cell based assays (in words): summary of Table 1
Chain of NV 3CLpro (Q83883 1101-1281): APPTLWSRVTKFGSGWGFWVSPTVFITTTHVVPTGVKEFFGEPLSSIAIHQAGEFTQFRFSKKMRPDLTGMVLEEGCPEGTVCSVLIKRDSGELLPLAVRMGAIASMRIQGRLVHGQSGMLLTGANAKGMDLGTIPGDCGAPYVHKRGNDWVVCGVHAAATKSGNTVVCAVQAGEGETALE

SMILES	TC50 (EC50) (HG23 cells) [µM]	also measured
CC(C)C[C@@H]1NC(=O)OC(c2cccc(Cl)c2)CCCCCONC(=O)CC[C@@H](C=O)NC1=O (single isomer, unassigned) [Compound 36B]	73.8	
CCCCCC1CCCCCNC(=O)CC[C@@H](C=O)NC(=O)[C@H](CC(C)C)NC(=O)O1 (stereo partly drawn) [Compound 21, (4S, 7S)-4-Isobutyl-2,5,10-trioxo-17-pentyl-1-oxa-3,6,11-triazacycloheptadecane-7-carbaldehyde]	72.7	Fold less active than compounds 13/25 (NV 3CLpro; Table 1): ~ 2 fold
O=C1CC[C@@H](C(O)S(=O)(=O)[O-])NC(=O)C2(CCCCC2)NC(=O)OC(c2cccc(Cl)c2)CCCCCCN1.[Na+] (stereo partly drawn) [Compound 27, Sodium ((21S)-10-(3-chlorophenyl)-8,18,23-trioxo-9-oxa-7,17,22-triazaspiro[5.17]tricosan-21-yl) (hydroxy) methanesulfonate]	46.6	Activity against NV 3CLpro and in cell based assays (in words) (NV 3CLpro): inactive
O=C[C@@H]1CCC(=O)NC/C=C/CCC(c2cccc(Cl)c2)OC(=O)N[C@@H](CC2CCCCC2)C(=O)N1 (stereo partly drawn) [Compound 24, (4S, 7S, E)-17-(3-Chlorophenyl)-4-(cyclohexylmethyl)-2,5,10-trioxo-1-oxa-3,6,11-triazacycloheptadec-13-ene-7-carbaldehyde]	42.3	
CC(C)C[C@@H]1NC(=O)OC(Cc2ccccc2)CC/C=C/CNC(=O)CC[C@@H](C=O)NC1=O (stereo partly drawn) [Compound 23, (4S, 7S, E)-17-Benzyl-4-isobutyl-2,5,10-trioxo-1-oxa-3,6,11-triazacycloheptadec-13-ene-7-carbaldehyde]	>100	Fold more potent than compound 12 (NV 3CLpro; unsaturated linker versus saturated linker, Table 1): ~ 2 fold
C[C@@H]1NC(=O)OC(c2cccc(Cl)c2)CCCCCCNC(=O)CC[C@@H](C=O)NC1=O (stereo partly drawn) [Compound 17, (4S, 7S)-18-(3-Chlorophenyl)-4-methyl-2,5,10-trioxo-1-oxa-3,6,11-triazacyclooctadecane-7-carbaldehyde]	>100	
O=C[C@@H]1CCC(=O)NCCCCCC(c2cccc(Cl)c2)OC(=O)N[C@@H](CC2CCCCC2)C(=O)N1 (stereo partly drawn) [14(minor), (4S, 7S)-17-(3-Chlorophenyl)-4-(cyclohexylmethyl)-2,5,10-trioxo-1-oxa-3,6,11-triazacycloheptadecane-7-carbaldehyde]	45.3	
CC(C)C[C@@H]1NC(=O)OC(c2cccc(Cl)c2)CCCCCNC(=O)CC[C@@H](C(O)S(=O)(=O)[O-])NC1=O.[Na+] (stereo partly drawn) [Compound 25, Sodium ((4S, 7S)-17-(3-chlorophenyl)-4-isobutyl-2,5,10-trioxo-1-oxa-3,6,11-triazacycloheptadecan-7-yl) (hydroxy) methanesulfonate]	>100	
C[C@@H]1NC(=O)OC(c2cccc(Cl)c2)CCCCCNC(=O)CC[C@@H](C=O)NC1=O (stereo partly drawn) [Compound 16, (4S, 7S)-17-(3-Chlorophenyl)-4-methyl-2,5,10-trioxo-1-oxa-3,6,11-triazacycloheptadecane-7-carbaldehyde]	>100	
O=C[C@@H]1CCC(=O)NCCCCCC(c2cccc(Cl)c2)OC(=O)NC2(CCCCC2)C(=O)N1 (stereo partly drawn) [Compound 18, (20S)-10-(3-Chlorophenyl)-8,17,22-trioxo-9-oxa-7,16,21-triazaspiro[5.16]docosane-20-carbaldehyde]	62.4	Activity against NV 3CLpro and in cell based assays (in words) (NV 3CLpro): inactive
CCCCCC1CCCCCNC(=O)CC[C@@H](C(O)S(=O)(=O)[O-])NC(=O)[C@H](CC(C)C)NC(=O)O1.[Na+] (stereo partly drawn) [Compound 29, Sodium hydroxyl ((4S, 7S)-4-isobutyl-2,5,10-trioxo-17-pentyl-1-oxa-3,6,11-triazacycloheptadecan-7-yl) methanesulfonate]	78.5	Fold less active than compounds 13/25 (NV 3CLpro; Table 1): ~ 2 fold
O=C[C@@H]1CCC(=O)NCCCCCC(c2cccc(Cl)c2)OC(=O)N[C@@H](CC2CCCCC2)C(=O)N1 (stereo partly drawn) [14(major), (4S, 7S)-17-(3-Chlorophenyl)-4-(cyclohexylmethyl)-2,5,10-trioxo-1-oxa-3,6,11-triazacycloheptadecane-7-carbaldehyde]	62.4	
CC(C)C[C@@H]1NC(=O)OC(c2ccccc2)CCCCCNC(=O)CC[C@@H](C=O)NC1=O (stereo partly drawn) [Compound 11, (4S, 7S)-4-Isobutyl-2,5,10-trioxo-17-phenyl-1-oxa-3,6,11-triazacycloheptadecane-7-carbaldehyde]	>100	
CC(C)C[C@@H]1NC(=O)OC(c2cccc(Cl)c2)CCCCCNC(=O)CC[C@@H](C(=O)C(=O)NC2CC2)NC1=O (stereo partly drawn) [Compound 31, 2-((4S, 7S)-17-(3-Chlorophenyl)-4-isobutyl-2,5,10-trioxo-1-oxa-3,6,11-triazacycloheptadecan-7-yl)-N-cyclopropyl-2-oxoacetamide]	53.1	
O=C[C@@H]1CCC(=O)NCCCCCCC(c2cccc(Cl)c2)OC(=O)NC2(CCCCC2)C(=O)N1 (stereo partly drawn) [Compound 19, (21S)-10-(3-Chlorophenyl)-8,18,23-trioxo-9-oxa-7,17,22-triazaspiro [5.17] tricosane-21-carbaldehyde]	53.3	Activity against NV 3CLpro and in cell based assays (in words) (NV 3CLpro): inactive
CC(C)C[C@@H]1NC(=O)OC(CCCc2ccccc2)CCCCCNC(=O)CC[C@@H](C(O)S(=O)(=O)[O-])NC1=O.[Na+] (stereo partly drawn) [Compound 28, Sodium hydroxyl ((4S, 7S)-4-isobutyl-2,5,10-trioxo-17-(3-phenylpropyl)-1-oxa-3,6,11-triazacycloheptadecan-7-yl) methanesulfonate]	69.2	
CC(C)C[C@@H]1NC(=O)OC(c2cccc(Cl)c2)CCCCCONC(=O)CC[C@@H](C=O)NC1=O (single isomer, unassigned) [Compound 36A]	68.3	
CC(C)C[C@@H]1NC(=O)OC(Cc2ccccc2)CCCCCNC(=O)CC[C@@H](C=O)NC1=O (stereo partly drawn) [Compound 12, (4S, 7S)-17-Benzyl-4-isobutyl-2,5,10-trioxo-1-oxa-3,6,11-triazacycloheptadecane-7-carbaldehyde]	>100	
CC(C)C[C@@H]1NC(=O)OC(c2cccc(Cl)c2)CCCCCNC(=O)CC[C@@H](C=O)NC1=O (stereo partly drawn) [Compound 13, (4S, 7S)-17-(3-Chlorophenyl)-4-isobutyl-2,5,10-trioxo-1-oxa-3,6,11-triazacycloheptadecane-7-carbaldehyde]	>100	
CC(C)C[C@@H]1NC(=O)OC(CCCc2ccccc2)CCCCCNC(=O)CC[C@@H](C=O)NC1=O (stereo partly drawn) [Compound 20, (4S, 7S)-4-Isobutyl-2,5,10-trioxo-17-(3-phenylpropyl)-1-oxa-3,6,11-triazacycloheptadecane-7-carbaldehyde]	71.5	
O=C1CC[C@@H](C(O)S(=O)(=O)[O-])NC(=O)C2(CCCCC2)NC(=O)OC(c2cccc(Cl)c2)CCCCCN1.[Na+] (stereo partly drawn) [Compound 26, Sodium ((20S)-10-(3-chlorophenyl)-8,17,22-trioxo-9-oxa-7,16,21-triazaspiro [5.16]docosan-20-yl) (hydroxy) methanesulfonate]	48.5	Activity against NV 3CLpro and in cell based assays (in words) (NV 3CLpro): inactive
CC(C)C[C@@H]1NC(=O)OC(c2cccc(Cl)c2)CCCCCCNC(=O)CC[C@@H](C=O)NC1=O (stereo partly drawn) [Compound 15, (4S, 7S)-18-(3-Chlorophenyl)-4-isobutyl-2,5,10-trioxo-1-oxa-3,6,11-triazacyclooctadecane-7-carbaldehyde]	67.4	
